Assay results: PubChem BioAssay AID1918958 (Molecular Pharmacology Branch, DTP, NCI, 2023)

Tested on: NCI-H196 complex spheroid viability
Test: Anticancer human tumor NCI-H196 cell line growth inhibition [LSD1];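 further: spheroids exposed to agents for 7 days before readout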;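 on viability, T/C: 100% = DMSO vehicle control viability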
Details: for IC50: curve of first compound; for viability, T/C: stronger effect = lower value
In short: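 Drug combinations with the LSD1 inhibitor iadademstat tested on tumor cells co-cultured as spheroids with endothelial cells and mesenchymal stem cells. Concentrations descended in half-log increments from clinical Cmax or 10 microM.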

[1] = second compound 0.1 µM, first compound 0.00316 µM
[2] = second compound 0.1 µM, first compound 0.01 µM
[3] = second compound 0.1 µM, first compound 0.0316 µM
[4] = second compound 0.1 µM, first compound 0.1 µM
[5] = second compound 0.316 µM, first compound 0.00316 µM
[6] = second compound 0.316 µM, first compound 0.01 µM
[7] = second compound 0.316 µM, first compound 0.0316 µM
[8] = second compound 0.316 µM, first compound 0.1 µM
[9] = second compound 1 µM, first compound 0.00316 µM
[10] = second compound 1 µM, first compound 0.01 µM
[11] = second compound 1 µM, first compound 0.0316 µM
[12] = second compound 1 µM, first compound 0.1 µM
[13] = second compound 3.16 µM, first compound 0.00316 µM
[14] = second compound 3.16 µM, first compound 0.01 µM
[15] = second compound 3.16 µM, first compound 0.0316 µM
[16] = second compound 3.16 µM, first compound 0.1 µM
[17] = second compound 10 µM, first compound 0.00316 µM
[18] = second compound 10 µM, first compound 0.01 µM
[19] = second compound 10 µM, first compound 0.0316 µM
[20] = second compound 10 µM, first compound 0.1 µM
[21] = second compound 0.1 µM, first compound 0.000949 µM
[22] = second compound 0.1 µM, first compound 0.003 µM
[23] = second compound 0.1 µM, first compound 0.00949 µM
[24] = second compound 0.1 µM, first compound 0.03 µM
[25] = second compound 0.1 µM, first compound 0.0949 µM
[26] = second compound 0.1 µM, first compound 0.3 µM
[27] = second compound 0.316 µM, first compound 0.000949 µM
[28] = second compound 0.316 µM, first compound 0.003 µM
[29] = second compound 0.316 µM, first compound 0.00949 µM
[30] = second compound 0.316 µM, first compound 0.03 µM
[31] = second compound 0.316 µM, first compound 0.0949 µM
[32] = second compound 0.316 µM, first compound 0.3 µM
[33] = second compound 1 µM, first compound 0.000949 µM
[34] = second compound 1 µM, first compound 0.003 µM
[35] = second compound 1 µM, first compound 0.00949 µM
[36] = second compound 1 µM, first compound 0.03 µM
[37] = second compound 1 µM, first compound 0.0949 µM
[38] = second compound 1 µM, first compound 0.3 µM
[39] = second compound 3.16 µM, first compound 0.000949 µM
[40] = second compound 3.16 µM, first compound 0.003 µM
[41] = second compound 3.16 µM, first compound 0.00949 µM
[42] = second compound 3.16 µM, first compound 0.03 µM
[43] = second compound 3.16 µM, first compound 0.0949 µM
[44] = second compound 3.16 µM, first compound 0.3 µM
[45] = second compound 10 µM, first compound 0.000949 µM
[46] = second compound 10 µM, first compound 0.003 µM
[47] = second compound 10 µM, first compound 0.00949 µM
[48] = second compound 10 µM, first compound 0.03 µM
[49] = second compound 10 µM, first compound 0.0949 µM
[50] = second compound 10 µM, first compound 0.3 µM

Compound: CC[C@@]1(O)C(=O)OCc2c1cc1n(c2=O)Cc2cc3c(CN(C)C)c(O)ccc3nc2-1 + NC1CCC(NC2CC2c2ccccc2)CC1
- IC50 (second compound 0.1 µM): > 100 nM
- IC50 (second compound 0.316 µM): > 100 nM
- IC50 (second compound 1 µM): > 100 nM
- IC50 (second compound 3.16 µM): > 100 nM
- IC50 (second compound 10 µM): > 100 nM
- viability, T/C (second compound 0.1 µM, first compound 0.000316 µM): 96.8%
- viability, T/C (second compound 0.1 µM, first compound 0.001 µM): 96.4%
- viability, T/C [1]: 103%
- viability, T/C [2]: 107%
- viability, T/C [3]: 115%
- viability, T/C [4]: 94.1%
- viability, T/C (second compound 0.316 µM, first compound 0.000316 µM): 96%
- viability, T/C (second compound 0.316 µM, first compound 0.001 µM): 90.2%
- viability, T/C [5]: 105%
- viability, T/C [6]: 118%
- viability, T/C [7]: 110%
- viability, T/C [8]: 101%
- viability, T/C (second compound 1 µM, first compound 0.000316 µM): 89.7%
- viability, T/C (second compound 1 µM, first compound 0.001 µM): 105%
- viability, T/C [9]: 98.6%
- viability, T/C [10]: 101%
- viability, T/C [11]: 98.4%
- viability, T/C [12]: 93.7%
- viability, T/C (second compound 3.16 µM, first compound 0.000316 µM): 88.7%
- viability, T/C (second compound 3.16 µM, first compound 0.001 µM): 95.3%
- viability, T/C [13]: 91%
- viability, T/C [14]: 100%
- viability, T/C [15]: 111%
- viability, T/C [16]: 102%
- viability, T/C (second compound 10 µM, first compound 0.000316 µM): 94.6%
- viability, T/C (second compound 10 µM, first compound 0.001 µM): 89.7%
- viability, T/C [17]: 98%
- viability, T/C [18]: 109%
- viability, T/C [19]: 105%
- viability, T/C [20]: 95.3%

Compound: CCc1c2c(nc3ccc(O)cc13)-c1cc3c(c(=O)n1C2)COC(=O)[C@]3(O)CC + NC1CCC(NC2CC2c2ccccc2)CC1
- IC50 (second compound 0.1 µM): 10 nM
- IC50 (second compound 0.316 µM): 9.56 nM
- IC50 (second compound 1 µM): 11 nM
- IC50 (second compound 3.16 µM): 10.1 nM
- IC50 (second compound 10 µM): 11.4 nM
- viability, T/C [21]: 113%
- viability, T/C [22]: 104%
- viability, T/C [23]: 52.8%
- viability, T/C [24]: 3.31%
- viability, T/C [25]: 0.73%
- viability, T/C [26]: 1.14%
- viability, T/C [27]: 123%
- viability, T/C [28]: 104%
- viability, T/C [29]: 52.5%
- viability, T/C [30]: 3.77%
- viability, T/C [31]: 1.18%
- viability, T/C [32]: 0.82%
- viability, T/C [33]: 120%
- viability, T/C [34]: 111%
- viability, T/C [35]: 57.1%
- viability, T/C [36]: 2.51%
- viability, T/C [37]: 0.62%
- viability, T/C [38]: 0.86%
- viability, T/C [39]: 109%
- viability, T/C [40]: 91.2%
- viability, T/C [41]: 55.3%
- viability, T/C [42]: 2%
- viability, T/C [43]: 0.56%
- viability, T/C [44]: 1.03%
- viability, T/C [45]: 113%
- viability, T/C [46]: 98.7%
- viability, T/C [47]: 60.1%
- viability, T/C [48]: 3.63%
- viability, T/C [49]: 0.8%
- viability, T/C [50]: 0.85%

Compound: COc1cc(C2c3cc4c(cc3C(OC3OC5COC(C)OC5C(O)C3O)C3COC(=O)C23)OCO4)cc(OC)c1O (stereo not given) + NC1CCC(NC2CC2c2ccccc2)CC1
- IC50 (second compound 0.1 µM): > 3000 nM
- IC50 (second compound 0.316 µM): > 3000 nM
- IC50 (second compound 1 µM): > 3000 nM
- IC50 (second compound 3.16 µM): > 3000 nM
- IC50 (second compound 10 µM): > 3000 nM
- viability, T/C [23]: 94.1%
- viability, T/C [24]: 97.2%
- viability, T/C [25]: 113%
- viability, T/C [26]: 104%
- viability, T/C (second compound 0.1 µM, first compound 0.949 µM): 87.1%
- viability, T/C (second compound 0.1 µM, first compound 3 µM): 59.7%
- viability, T/C [29]: 102%
- viability, T/C [30]: 90.1%
- viability, T/C [31]: 104%
- viability, T/C [32]: 104%
- viability, T/C (second compound 0.316 µM, first compound 0.949 µM): 94.7%
- viability, T/C (second compound 0.316 µM, first compound 3 µM): 66.1%
- viability, T/C [35]: 89.5%
- viability, T/C [36]: 105%
- viability, T/C [37]: 98.8%
- viability, T/C [38]: 103%
- viability, T/C (second compound 1 µM, first compound 0.949 µM): 93.4%
- viability, T/C (second compound 1 µM, first compound 3 µM): 70.3%
- viability, T/C [41]: 120%
- viability, T/C [42]: 91.2%
- viability, T/C [43]: 104%
- viability, T/C [44]: 110%
- viability, T/C (second compound 3.16 µM, first compound 0.949 µM): 89.6%
- viability, T/C (second compound 3.16 µM, first compound 3 µM): 55.9%
- viability, T/C [47]: 103%
- viability, T/C [48]: 91.9%
- viability, T/C [49]: 95.5%
- viability, T/C [50]: 96.3%
- viability, T/C (second compound 10 µM, first compound 0.949 µM): 81.6%
- viability, T/C (second compound 10 µM, first compound 3 µM): 59.1%

Compound: Nc1ccn(C2OC(CO)C(O)C2(F)F)c(=O)n1 (stereo not given) + NC1CCC(NC2CC2c2ccccc2)CC1
- IC50 (second compound 0.1 µM): > 300 nM
- IC50 (second compound 0.316 µM): > 300 nM
- IC50 (second compound 1 µM): > 300 nM
- IC50 (second compound 3.16 µM): > 300 nM
- IC50 (second compound 10 µM): > 300 nM
- viability, T/C [21]: 104%
- viability, T/C [22]: 98.6%
- viability, T/C [23]: 85.9%
- viability, T/C [24]: 65.1%
- viability, T/C [25]: 61.8%
- viability, T/C [26]: 68.1%
- viability, T/C [27]: 96.8%
- viability, T/C [28]: 99.3%
- viability, T/C [29]: 93.7%
- viability, T/C [30]: 69.2%
- viability, T/C [31]: 59.2%
- viability, T/C [32]: 70.3%
- viability, T/C [33]: 97.3%
- viability, T/C [34]: 96.7%
- viability, T/C [35]: 85%
- viability, T/C [36]: 63.9%
- viability, T/C [37]: 64.2%
- viability, T/C [38]: 63.5%
- viability, T/C [39]: 99.7%
- viability, T/C [40]: 103%
- viability, T/C [41]: 88.2%
- viability, T/C [42]: 63.8%
- viability, T/C [43]: 63.8%
- viability, T/C [44]: 68.3%
- viability, T/C [45]: 94.2%
- viability, T/C [46]: 108%
- viability, T/C [47]: 86.5%
- viability, T/C [48]: 75.6%
- viability, T/C [49]: 65%
- viability, T/C [50]: 67.4%

Compound: Nc1ncn(C2CC(O)C(CO)O2)c(=O)n1 (stereo not given) + NC1CCC(NC2CC2c2ccccc2)CC1
- IC50 (second compound 0.1 µM): > 1000 nM
- IC50 (second compound 0.316 µM): > 1000 nM
- IC50 (second compound 1 µM): > 1000 nM
- IC50 (second compound 3.16 µM): > 1000 nM
- IC50 (second compound 10 µM): > 1000 nM
- viability, T/C [1]: 94.3%
- viability, T/C [2]: 96.1%
- viability, T/C [3]: 96.1%
- viability, T/C [4]: 92.5%
- viability, T/C (second compound 0.1 µM, first compound 0.316 µM): 93.3%
- viability, T/C (second compound 0.1 µM, first compound 1 µM): 93%
- viability, T/C [5]: 91%
- viability, T/C [6]: 97.4%
- viability, T/C [7]: 114%
- viability, T/C [8]: 96.7%
- viability, T/C (second compound 0.316 µM, first compound 0.316 µM): 96.9%
- viability, T/C (second compound 0.316 µM, first compound 1 µM): 99.3%
- viability, T/C [9]: 87.8%
- viability, T/C [10]: 94.9%
- viability, T/C [11]: 94.9%
- viability, T/C [12]: 88.5%
- viability, T/C (second compound 1 µM, first compound 0.316 µM): 93.8%
- viability, T/C (second compound 1 µM, first compound 1 µM): 101%
- viability, T/C [13]: 94.5%
- viability, T/C [14]: 95.8%
- viability, T/C [15]: 99.2%
- viability, T/C [16]: 89.6%
- viability, T/C (second compound 3.16 µM, first compound 0.316 µM): 87.1%
- viability, T/C (second compound 3.16 µM, first compound 1 µM): 91.2%
- viability, T/C [17]: 91.2%
- viability, T/C [18]: 94.8%
- viability, T/C [19]: 91.2%
- viability, T/C [20]: 87.5%
- viability, T/C (second compound 10 µM, first compound 0.316 µM): 92.9%
- viability, T/C (second compound 10 µM, first compound 1 µM): 91.3%
